Source: patent US12492222B2, “Lipophilic enantiomers of desacetylglucosamine muramyl dipeptide with anti-inflammatory and growth promoting activity” (Nutrivert Inc., priority 2020, dated 2025)
Peptide text beside a SMILES is read from it.

Tests used:
broiler chickens = test: Growth rate and feed conversion in broiler chickens fed supplemented feed; format: in vivo; details: for feed conversion rate at constant body weight gain: LDPP 0.2 mg/kg feed, bacitracin 50 mg/kg feed
Method: The objective of this experiment was to evaluate if supplementation of feed with L-lactate-D-alanine-L-glutamine palmityl ester (LDPP) at 0.2 mg/kg feed increases the growth rate and/or improves the feed conversion in broiler chickens, i.e., if it promotes growth by making broiler chickens grow faster and/or require less feed for the same amount of gain in body weight. A secondary objective was to compare the effect of LDPP to that of bacitracin, an industry-standard growth promoting antibiotic.
Freshly hatched female Ross 708 broiler chickens were housed for as single flock for 21 days on a floor pen with used bedding. All chickens received crumbled untreated standard Aviagen 708 starter and grower feeds during this time, with 80% recommended crude protein and without anti-coccidial supplement. After 3 weeks, the chickens were grouped into 38 replicate floor pens of 25 chickens with fresh bedding. Chickens were fed for 24 days from day 21 through termination on day 44 standard crumbled finisher Aviagen 708 finisher feed with 100% protein and 0.0125% amprolium anti-coccidial inclusion. Feed and water were available ad libitum throughout the trial. Thirteen pens each were assigned to untreated controls (feed without supplement) and LDPP-treatment (0.2 mg LDPP/kg feed), and 12 pens were assigned to bacitracin treatment (50 mg bacitracin/kg feed). The experimental unit was the pen rather than individual chickens. Pen weights of chickens were determined on day 21 and 44. Finisher feed uptake was be recorded, and on day 44 residual feed was determined, and the experiment was terminated.
For constant time analyses of the complete 24-day duration of the feeding experiment, the overall (true) feed conversion for each treatment group was determined by dividing total consumed feed by total weight gains of all pens of each treatment group.
For constant body weight gain analyses, the time on feed of the bacitracin and LDPP treated groups was modeled to match the weight gain of the untreated control group. Based on the closely matching body weights and weight gains of standard female Ross 708 broilers, body weight gains per chicken on the last day 44 of the experiment were calculated as the 0.04781 fraction of pen body weight gain day 21-44/surviving chickens per pen. […] Similarly, feed consumption per chicken on day 44 was calculated as the 0.05867 fraction of pen feed uptake day 21-44/surviving chickens per pen. Mean feed uptake per treatment group was then calculated by subtracting the previously found fractional daily feed uptake from each pen.
Body weight gain and feed consumption data were analyzed by one-way ANOVA and Tukey […] connection for multiple comparisons. Group differences in feed conversion rates were evaluated from pen FCR data by non-parametric Mann Whitney U test.

nursery pigs = test: Growth rate and feed conversion in freshly weaned nursery pigs fed supplemented feed; format: in vivo; details: 0.2 mg/kg feed
Method: The objective of this experiment was to evaluate if supplementation of feed with L-lactate-D-alanine-L-glutamine palmityl ester (LDPP) at 0.2 mg/kg feed increases the growth rate and/or improves the feed conversion in freshly weaned nursery pigs.
Male pigs (barrows) were used in this study. Pigs were weaned at approximately 3 weeks of age, transferred to the nursery, and randomly allotted to 24 nursery pens with 4 pigs per pen. One of 2 dietary treatments, untreated controls (feed without supplement) or LDPP-treatment (0.2 mg LDPP/kg feed), was assigned to each pen, such that 12 pens of 4 pigs were used to evaluate the effect of each diet. Premixes of the treatment compounds were added at 0.1% to mixed diets, which were then pelleted. Phase 1 diet was fed at 6 lb/pig from day 0 to approximately day 8 post-weaning. On day 8 post-weaning, pigs were switched to 12 lb/pig Phase 2 diet which expired approximately on day 18. Once the Phase 2 diet had been consumed, pigs were switched to Phase 3 diet and maintained until termination of the study on day 42. No antibiotics were added to any diet. Diets were formulated to meet or exceed all the nutrient requirements based on the 2012 NRC specifications. Pigs received diets and water ad libitum. Pigs were weighed individually on days 0 and 42 of the experiment. Feed intake per pen was monitored for the weigh period. Although individual pig weights were obtained, the pen was the experimental unit. On day 42, the study was terminated and untreated pigs were retained in the food chain while the treatment pigs were euthanized.
Pen data were converted into individual pig data by dividing by the number of pigs. For three pens in which pigs were euthanized, a time-fractional pig number was used. Body weight gain and calculated feed consumption data were analyzed by pairwise T-test. The overall (true) feed conversion for each treatment was determined by dividing total consumed feed by total weight gains of all pens of each treatment. Treatment differences in feed conversion were statistically evaluated by non-parametric Mann Whitney U test of pen feed conversion data.
For constant body weight gain analyses, the time on feed of the LDPP treated group was modeled to match the weight gain of the untreated control group. Daily body weights and weight gains were modeled by linear interpolation between weights on days 0 and 42. […] From interpolated daily body weight data, daily feed consumption was first calculated as 5% of body weight. The sum of these daily feed uptakes was then divided by the actual weighed feed uptake of each pen, and daily feed uptakes were multiplied by this fraction to arrive at the precise weighed feed uptake per pen. These calculated daily feed uptakes were used to calculate feed uptake by changed times on feed for the LDPP treatment group. Mean feed uptake of the LDPP treatment group was then calculated by subtracting for each pen the previously found day 42 and 41 and the fractional day 40 feed uptake.
Body weight gain and feed consumption data were analyzed by one-way ANOVA and Student's T-test. Differences in feed conversion rates were evaluated from pen FCR data by non-parametric Mann Whitney U test.

[1] = modeled, 1,653 g constant weight gain

Structure (SMILES) | feed conversion rate at constant time (broiler chickens; 0.2 mg/kg feed, 24 days, total consumed feed / total weight gain, untreated 1.818) | morbidity and mortality rates between groups (broiler chickens; 0.2 mg/kg feed, day 21-44) | body weight gain per chicken (broiler chickens; 0.2 mg/kg feed, day 21-44 (24 days constant time)) | increase of weight gain versus untreated control chickens (broiler chickens; 0.2 mg/kg feed, day 21-44 (24 days constant time), control 1,653 g) [%] | improvement of feed conversion rate at constant body weight gain versus untreated (broiler chickens; 0.2 mg/kg feed, modeled constant weight gain) [%] | time on feed required for weight gain identical to untreated controls (broiler chickens; 0.2 mg/kg feed, modeled, 1,653 g constant weight gain, controls 24 days) [days] | feed conversion rate at constant body weight gain (broiler chickens; [1]) | improvement of feed conversion rate at constant time versus untreated (nursery pigs; 42 days) [%] | feed conversion rate at constant time (nursery pigs; 42 days, total consumed feed / total weight gain, untreated 1.479) | morbidity and mortality rates between groups (nursery pigs; day 0-42) | body weight gain per pig (nursery pigs; day 0-42 (constant time)) [kg] | increase of weight gain versus untreated nursery pigs (nursery pigs; day 0-42 (constant time), control 22.076 kg) [%] | improvement of feed conversion rate at constant body weight gain versus untreated (nursery pigs; modeled constant weight gain) [%] | more rapid growth compared to controls (nursery pigs; modeled constant weight gain) [days] | feed conversion rate at constant body weight gain (nursery pigs; modeled, 22.076 kg constant weight gain) | time on feed required for weight gain identical to untreated controls (nursery pigs; modeled, 22.076 kg constant weight gain, controls 42 days) [days]
CCCCCCCCCCCCCCCCOC(=O)[C@H](CCC(N)=O)NC(=O)[C@@H](C)NC(=O)[C@H](C)O [LDPP, hexadecyl (2S)-5-amino-2-[[(2R)-2-[[(2S)-2-hydroxypropanoyl]amino]propanoyl]amino]-5-oxo-pentanoate] | 1.805 | did not differ significantly | 1,725 g | 4.4 | 1.7 | 23.13 | 1.787 | 3.8 | 1.423 | did not differ significantly | 23.826 | 7.9 | 5.5 | 2.1 | 1.396 | 39.921
CC[C@H](C)[C@H](N)C1=N[C@H](C(=O)N[C@@H](CC(C)C)C(=O)N[C@H](CCC(=O)O)C(=O)N[C@H](C(=O)N[C@H]2CCCCNC(=O)[C@H](CC(N)=O)NC(=O)[C@@H](CC(=O)O)NC(=O)[C@H](Cc3cnc[nH]3)NC(=O)[C@@H](Cc3ccccc3)NC(=O)[C@H]([C@@H](C)CC)NC(=O)[C@@H](CCCN)NC2=O)[C@@H](C)CC)CS1 [bacitracin, reference compound] (HELM PEPTIDE1{[CC[C@H](C)[C@H](N)C1=N[C@H](C(=O)[*:2])CS1].L.[dE].I.K.[NCCC[C@@H](N[*:1])C(=O)[*:2]].I.[dF].H.[dD].N}$PEPTIDE1,PEPTIDE1,5:R3-11:R2$$$V2.0) | – | – | – | – | – | – | 1.827 | – | – | – | – | – | – | – | – | –
